In patent publication US6218379A, “Tricyclic carbacephems” (Hoffmann-la Roche Inc., priority 1996, dated 2001):
Converted amounts (≈) assume the structure as drawn. Counter-ions that a name gives are not always drawn.

Key:
[1] = tested on: Citrobacter freundii 1982; experiment: Antibacterial activity in vitro (MIC) against Citrobacter freundii 1982; type: cell-based; settings: read-out: MIC C. freundii 1982
Experimental: (§1) The minimum inhibitory concentration in vitro (MIC in μg/ml) of a compound of formula I against Citrobacter freundii 1982 and Staphylococcus aureus 887 is measured and compiled in Table 2.

[2] = tested on: Staphylococcus aureus 887; experiment: Antibacterial activity in vitro (MIC) against Staphylococcus aureus 887; type: cell-based; settings: read-out: MIC S. aureus 887
Experimental: as §1

| MIC [1] [µg/mL] | MIC [2] [µg/mL] | SMILES |
| --- | --- | --- |
| 64 (≈ 161 µM) | 64 (≈ 161 µM) | CC(=O)N1C[C@H]2CC(/C=C/c3cccc[n+]3CC(N)=O)=C(C(=O)[O-])N3C(=O)[C@@H]1[C@@H]23 [Example 72, (E)-(1aS,3aR,6bR)-2-Acetyl-5-[2-(1-carbamoylmethyl-pyridin-1-ium-2-yl)-vinyl]-1-oxo-1a,2,3,3a,4,6b-hexahydro-1H-2,6a-diaza-cyclobut[cd]indene-6-carboxylate] |
| 8 | 16 | O=C(O)C1=C(/C=C2\CCN(CC(F)(F)F)C2=O)C[C@@H]2CN[C@@H]3C(=O)N1[C@H]23 [Example 14, (E)-(1aS,3aR,6bR)-1-Oxo-5-[2-oxo-1-(2,2,2-trifluoro-ethyl)-pyrrolidin-3-ylidenemethyl]-1a,2,3,3a,4,6b-hexahydro-1H-2,6a-diaza-cyclobut[cd]indene-6-carboxylic acid trifluoroacetate (1:1)] |
| 4 | 2 | CC(=O)N1C[C@H]2CC(/C=C3\CCN(Cc4cccs4)C3=O)=C(C(=O)O)N3C(=O)[C@@H]1[C@@H]23 [Example 27, (E)-(1aS,3aR,6bR)-2-Acetyl-1-oxo-5-[2-oxo-1-(thiophen-2-ylmethyl)-pyrrolidin-3-ylidenemethyl]-1a,2,3,3a,4,6b-hexahydro-1H-2,6a-diaza-cyclobut[cd]indene-6-carboxylic acid sodium salt (1:1)] |

| SMILES | MIC [1] [µg/mL] | MIC [2] [µg/mL] |
| --- | --- | --- |
| O=C(O)C1=C(/C=C/c2ccncc2)C[C@@H]2CN[C@@H]3C(=O)N1[C@H]23 [Example 51, (E)-(1aS,3aR,6bR)-1-Oxo-5-(2-pyridin-4-yl-vinyl)-1a,2,3,3a,4,6b-hexahydro-1H-2,6a-diaza-cyclobut[cd]indene-6-carboxylic acid trifluoroacetate (1:1.45)] | 64 | 4 |
